According to patent US12303520B2, “Aqueous nebulization composition” (Nephron Pharmaceuticals Corporation, priority 2017, dated 2025):

How the values were obtained:
[1] = Solubility of budesonide in solvents; format: physicochemical
Excerpt: Previous efforts to provide stable, inhalable budesonide solutions, including use of cyclodextrins or use of a modified budesonide, have not been proven pharmaceutically acceptable.

[2] = background statement, cited from earlier work

## CCC[C@@H]1O[C@@H]2C[C@H]3C4CCC5=CC(=O)C=CC5(C)[C@H]4[C@@H](O)CC3(C)[C@]2(C(=O)CO)O1 (mixture of isomers) [Budesonide, (RS)-11-beta, 16-alpha, 17,21-tetrahydroxypregna-I, 4-diene-3,20-dione cyclic 16,17-acetal with butyraldehyde]
[1]
  Solubility of budesonide in pure glycerol: not to be soluble
[2]; heptanes
  Solubility of budesonide in heptanes: practically insoluble
[2]; many alcohols (particularly polyhydric alcohols and organic, water-soluble glycols)
  Solubility of budesonide in alcohols: sparingly soluble
[2]; water
  Solubility of budesonide in water: practically insoluble
